Source: patent publication EP4745137A1 (Gluetacs Therapeutics (Shanghai) Co., Ltd., priority 2023, dated 2025)

What was measured:
Type in all cases: cell-based
Settings in all cases: 24 hours of compound treatment, 50 nM and 500 nM tested (concentration behind the class not stated)
GSPT1 = target: T1, GSPT1 (Homo sapiens, UniProt P15170+Q96SW2); assay: Western-blot assay of substrate protein degradation in hPBMCs, GSPT1
T1 construct: endogenous in cells; host or cells: hPBMCs (Milecell Biotechnologies)

WEE1 = target: T2, WEE1 (Homo sapiens, UniProt P30291+Q96SW2); assay: Western-blot assay of substrate protein degradation in hPBMCs, WEE1
T2 construct: endogenous in cells; host or cells: hPBMCs (Milecell Biotechnologies)

IKZF3 = target: T3, IKZF3 (Homo sapiens, UniProt Q96SW2+Q9UKT9); assay: Western-blot assay of substrate protein degradation in hPBMCs, IKZF3
T3 construct: endogenous in cells; host or cells: hPBMCs (Milecell Biotechnologies)

IKZF1 = target: T4, IKZF1 (Homo sapiens, UniProt Q13422+Q96SW2); assay: Western-blot assay of substrate protein degradation in hPBMCs, IKZF1
T4 construct: endogenous in cells; host or cells: hPBMCs (Milecell Biotechnologies)

IKZF2 = target: T5, IKZF2 (Homo sapiens, UniProt Q96SW2+Q9UKS7); assay: Western-blot assay of substrate protein degradation in hPBMCs, IKZF2
T5 construct: endogenous in cells; host or cells: hPBMCs (Milecell Biotechnologies)

CK1α = target: T6, CK1α (Homo sapiens, UniProt P48729+Q96SW2); assay: Western-blot assay of substrate protein degradation in hPBMCs, CK1α
T6 construct: endogenous in cells; host or cells: hPBMCs (Milecell Biotechnologies)
T6 sequence (P48729 whole entry): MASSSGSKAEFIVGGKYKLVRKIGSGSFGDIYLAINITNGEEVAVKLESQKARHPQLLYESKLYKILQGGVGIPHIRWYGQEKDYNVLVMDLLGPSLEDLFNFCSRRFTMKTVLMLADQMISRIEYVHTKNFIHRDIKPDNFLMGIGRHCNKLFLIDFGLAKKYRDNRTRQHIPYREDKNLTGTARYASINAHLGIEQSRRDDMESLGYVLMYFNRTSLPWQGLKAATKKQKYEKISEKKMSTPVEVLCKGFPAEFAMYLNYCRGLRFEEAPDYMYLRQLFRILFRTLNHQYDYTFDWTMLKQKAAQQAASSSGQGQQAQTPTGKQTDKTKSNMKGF
T6 sequence (Q96SW2 whole entry): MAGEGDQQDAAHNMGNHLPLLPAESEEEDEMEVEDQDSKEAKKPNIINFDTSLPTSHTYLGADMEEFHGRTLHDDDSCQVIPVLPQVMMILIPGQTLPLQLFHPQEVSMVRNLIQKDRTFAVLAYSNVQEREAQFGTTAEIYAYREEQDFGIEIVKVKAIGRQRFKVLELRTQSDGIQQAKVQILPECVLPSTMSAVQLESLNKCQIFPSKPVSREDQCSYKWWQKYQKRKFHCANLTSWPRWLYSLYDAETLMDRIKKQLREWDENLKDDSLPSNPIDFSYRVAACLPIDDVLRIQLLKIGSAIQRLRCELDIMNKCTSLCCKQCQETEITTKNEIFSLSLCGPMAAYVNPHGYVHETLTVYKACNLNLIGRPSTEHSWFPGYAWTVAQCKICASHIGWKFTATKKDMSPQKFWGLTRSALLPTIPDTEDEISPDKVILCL
T6 sequence (Q16531 whole entry partner): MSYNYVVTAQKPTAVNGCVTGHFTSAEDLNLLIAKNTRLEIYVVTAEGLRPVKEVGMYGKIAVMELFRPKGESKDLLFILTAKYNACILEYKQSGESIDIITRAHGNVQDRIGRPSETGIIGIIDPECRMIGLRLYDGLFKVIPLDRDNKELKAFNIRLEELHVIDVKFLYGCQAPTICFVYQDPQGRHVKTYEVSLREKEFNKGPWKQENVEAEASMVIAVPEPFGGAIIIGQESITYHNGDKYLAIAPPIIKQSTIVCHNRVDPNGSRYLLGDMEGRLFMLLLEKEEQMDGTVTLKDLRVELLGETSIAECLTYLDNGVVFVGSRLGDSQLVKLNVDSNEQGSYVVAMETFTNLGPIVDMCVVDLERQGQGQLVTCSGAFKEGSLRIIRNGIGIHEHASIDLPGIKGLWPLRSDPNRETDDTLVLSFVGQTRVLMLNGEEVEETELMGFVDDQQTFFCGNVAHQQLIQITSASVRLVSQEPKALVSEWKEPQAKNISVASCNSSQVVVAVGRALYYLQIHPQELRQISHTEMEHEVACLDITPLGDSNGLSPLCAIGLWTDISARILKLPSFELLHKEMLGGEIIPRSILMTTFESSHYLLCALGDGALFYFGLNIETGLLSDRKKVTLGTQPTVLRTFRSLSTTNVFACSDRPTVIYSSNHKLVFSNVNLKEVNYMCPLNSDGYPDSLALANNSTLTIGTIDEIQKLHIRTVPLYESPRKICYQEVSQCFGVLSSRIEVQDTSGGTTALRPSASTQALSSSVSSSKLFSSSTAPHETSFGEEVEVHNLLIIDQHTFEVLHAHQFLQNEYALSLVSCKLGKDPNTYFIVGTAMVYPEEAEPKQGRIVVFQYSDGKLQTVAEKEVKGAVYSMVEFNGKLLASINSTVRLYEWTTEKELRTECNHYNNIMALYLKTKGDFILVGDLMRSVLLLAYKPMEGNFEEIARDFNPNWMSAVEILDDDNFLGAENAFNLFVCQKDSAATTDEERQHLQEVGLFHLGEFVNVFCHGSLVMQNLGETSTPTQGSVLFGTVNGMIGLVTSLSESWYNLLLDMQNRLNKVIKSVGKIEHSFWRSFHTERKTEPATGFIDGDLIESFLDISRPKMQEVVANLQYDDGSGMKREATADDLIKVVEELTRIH

T4 sequence (Q13422 whole entry): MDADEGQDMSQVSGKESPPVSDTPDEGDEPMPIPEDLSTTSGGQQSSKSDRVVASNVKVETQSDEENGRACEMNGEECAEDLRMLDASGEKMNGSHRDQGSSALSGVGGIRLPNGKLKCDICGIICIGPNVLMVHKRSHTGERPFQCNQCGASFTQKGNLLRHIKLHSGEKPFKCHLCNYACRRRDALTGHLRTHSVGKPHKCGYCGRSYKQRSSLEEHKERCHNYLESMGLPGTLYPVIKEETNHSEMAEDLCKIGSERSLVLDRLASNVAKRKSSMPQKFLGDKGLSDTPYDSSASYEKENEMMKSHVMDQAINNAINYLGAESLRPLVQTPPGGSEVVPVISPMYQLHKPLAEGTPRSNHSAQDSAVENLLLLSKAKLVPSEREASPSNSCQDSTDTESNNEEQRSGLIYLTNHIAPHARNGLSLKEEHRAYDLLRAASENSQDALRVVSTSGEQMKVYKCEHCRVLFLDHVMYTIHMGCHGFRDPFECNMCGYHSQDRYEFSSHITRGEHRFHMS
T4 sequence (Q96SW2 whole entry): as the sequence (Q96SW2 whole entry) above
T4 sequence (Q16531 whole entry partner): as the sequence (Q16531 whole entry partner) above
T1 sequence (P15170 whole entry): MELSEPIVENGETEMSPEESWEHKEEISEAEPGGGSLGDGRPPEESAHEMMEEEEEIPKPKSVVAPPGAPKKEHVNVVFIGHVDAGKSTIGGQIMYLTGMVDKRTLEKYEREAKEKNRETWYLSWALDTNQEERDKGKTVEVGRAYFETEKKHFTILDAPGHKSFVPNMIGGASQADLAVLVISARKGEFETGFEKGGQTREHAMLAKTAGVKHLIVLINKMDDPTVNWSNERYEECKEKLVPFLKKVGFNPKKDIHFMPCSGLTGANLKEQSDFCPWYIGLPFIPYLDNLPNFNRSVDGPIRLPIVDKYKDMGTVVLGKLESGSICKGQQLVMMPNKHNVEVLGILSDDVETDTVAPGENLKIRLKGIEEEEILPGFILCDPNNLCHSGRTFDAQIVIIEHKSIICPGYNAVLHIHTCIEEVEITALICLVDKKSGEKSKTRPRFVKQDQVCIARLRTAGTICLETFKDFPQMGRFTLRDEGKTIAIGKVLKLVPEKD
T1 sequence (Q96SW2 whole entry): as the sequence (Q96SW2 whole entry) above
T1 sequence (Q16531 whole entry partner): as the sequence (Q16531 whole entry partner) above
T5 sequence (Q9UKS7 whole entry): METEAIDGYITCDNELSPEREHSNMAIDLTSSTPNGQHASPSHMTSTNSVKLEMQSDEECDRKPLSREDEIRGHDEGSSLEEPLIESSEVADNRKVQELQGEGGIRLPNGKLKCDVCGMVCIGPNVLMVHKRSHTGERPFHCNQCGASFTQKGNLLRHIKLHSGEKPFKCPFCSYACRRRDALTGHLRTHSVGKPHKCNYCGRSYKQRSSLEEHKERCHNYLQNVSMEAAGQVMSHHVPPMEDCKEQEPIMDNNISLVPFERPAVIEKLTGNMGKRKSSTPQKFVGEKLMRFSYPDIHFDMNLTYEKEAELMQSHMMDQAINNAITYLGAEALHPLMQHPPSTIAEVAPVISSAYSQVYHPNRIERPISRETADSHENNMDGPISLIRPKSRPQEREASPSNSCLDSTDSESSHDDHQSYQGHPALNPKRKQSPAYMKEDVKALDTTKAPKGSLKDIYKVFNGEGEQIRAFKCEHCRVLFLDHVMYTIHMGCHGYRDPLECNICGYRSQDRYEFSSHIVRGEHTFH
T5 sequence (Q96SW2 whole entry): as the sequence (Q96SW2 whole entry) above
T5 sequence (Q16531 whole entry partner): as the sequence (Q16531 whole entry partner) above
T2 sequence (P30291 whole entry): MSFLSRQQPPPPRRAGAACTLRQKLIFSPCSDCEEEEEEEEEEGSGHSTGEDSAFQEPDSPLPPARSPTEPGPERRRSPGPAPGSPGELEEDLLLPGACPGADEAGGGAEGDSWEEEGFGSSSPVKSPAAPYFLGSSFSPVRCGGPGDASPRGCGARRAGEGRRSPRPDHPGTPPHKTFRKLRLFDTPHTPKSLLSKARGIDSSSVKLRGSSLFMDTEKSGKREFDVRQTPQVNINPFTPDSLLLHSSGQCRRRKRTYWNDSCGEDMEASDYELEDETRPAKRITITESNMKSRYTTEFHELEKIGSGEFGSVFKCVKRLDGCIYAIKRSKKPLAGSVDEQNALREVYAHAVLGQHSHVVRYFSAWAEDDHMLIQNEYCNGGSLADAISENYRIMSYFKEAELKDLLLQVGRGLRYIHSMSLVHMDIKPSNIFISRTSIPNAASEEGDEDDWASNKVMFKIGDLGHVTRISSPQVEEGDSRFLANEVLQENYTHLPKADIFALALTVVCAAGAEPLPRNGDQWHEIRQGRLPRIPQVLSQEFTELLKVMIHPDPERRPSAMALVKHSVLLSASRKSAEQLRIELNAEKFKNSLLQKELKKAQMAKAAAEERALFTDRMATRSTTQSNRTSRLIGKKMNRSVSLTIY
T2 sequence (Q96SW2 whole entry): as the sequence (Q96SW2 whole entry) above
T2 sequence (Q16531 whole entry partner): as the sequence (Q16531 whole entry partner) above

Row | Compound | GSPT1 substrate protein remaining % (GSPT1) | Weel substrate protein remaining % (WEE1) | IKZF3 substrate protein remaining % (IKZF3) | IKZF 1 substrate protein remaining % (IKZF1) | IKZF2 substrate protein remaining % (IKZF2) | CK1a substrate protein remaining % (CK1α)
1 | O=C1CCC(N2C(=O)c3ccc(CN4CCN(c5ncnc6sc(-c7ccccc7)cc56)CC4)cc3C2=O)C(=O)N1 (stereo not drawn) [GT-06310, 2-(2,6-dioxopiperidin-3-yl)-5-((4-(6-phenylthieno[2,3-d]pyrimidin-4-yl)piperazin-1-yl)methyl)isoindoline-1,3-dione] | A (0% ≤ substrate protein remaining % ≤ 80%) | B (80%< substrate protein remaining %≤ 100%) | A (0% ≤ substrate protein remaining % ≤ 80%) | B (80%< substrate protein remaining %≤ 100%) | A (0% ≤ substrate protein remaining % ≤ 80%) | A (0% ≤ substrate protein remaining % ≤ 80%)
2 | Cc1nc(N2CCN(Cc3ccc4c(c3)C(=O)N(C3CCC(=O)NC3=O)C4=O)CC2)c2ccsc2n1 (stereo not drawn) [GT-06347, 2-(2,6-dioxopiperidin-3-yl)-5-((4-(2-methylthieno[2,3-d]pyrimidin-4-yl)piperazin-1-yl)methyl)isoindoline-1,3-dione] | B (80%< substrate protein remaining %≤ 100%) | B (80%< substrate protein remaining %≤ 100%) | A (0% ≤ substrate protein remaining % ≤ 80%) | A (0% ≤ substrate protein remaining % ≤ 80%) | A (0% ≤ substrate protein remaining % ≤ 80%) | B (80%< substrate protein remaining %≤ 100%)
3 | O=C1CCC(N2C(=O)c3ccc(CN4CCN(c5ccc(Cl)cc5Cl)CC4)cc3C2=O)C(=O)N1 (stereo not drawn) [GT-06355, 5-((4-(2,4-dichlorophenyl)piperazin-1-yl)methyl)-2-(2,6-dioxopiperidin-3-yl)isoindoline-1,3-dione] | A (0% ≤ substrate protein remaining % ≤ 80%) | B (80%< substrate protein remaining %≤ 100%) | B (80%< substrate protein remaining %≤ 100%) | B (80%< substrate protein remaining %≤ 100%) | B (80%< substrate protein remaining %≤ 100%) | B (80%< substrate protein remaining %≤ 100%)
4 | O=C1CCC(N2C(=O)c3ccc(CN4CCN(c5cc(Cl)ccc5Cl)CC4)cc3C2=O)C(=O)N1 (stereo not drawn) [GT-06356, 5-((4-(2,5-dichlorophenyl)piperazin-1-yl)methyl)-2-(2,6-dioxopiperidin-3-yl)isoindoline-1,3-dione] | A (0% ≤ substrate protein remaining % ≤ 80%) | B (80%< substrate protein remaining %≤ 100%) | B (80%< substrate protein remaining %≤ 100%) | B (80%< substrate protein remaining %≤ 100%) | B (80%< substrate protein remaining %≤ 100%) | B (80%< substrate protein remaining %≤ 100%)
5 | O=C1CCC(N2C(=O)c3ccc(CN4CCC(c5cccc(Cl)c5Cl)CC4)cc3C2=O)C(=O)N1 (stereo not drawn) [GT-06358, 5-((4-(2,3-dichlorophenyl)piperidin-1-yl)methyl)-2-(2,6-dioxopiperidin-3-yl)isoindoline-1,3-dione] | A (0% ≤ substrate protein remaining % ≤ 80%) | A (0% ≤ substrate protein remaining % ≤ 80%) | B (80%< substrate protein remaining %≤ 100%) | A (0% ≤ substrate protein remaining % ≤ 80%) | A (0% ≤ substrate protein remaining % ≤ 80%) | B (80%< substrate protein remaining %≤ 100%)
6 | O=C1CCC(N2C(=O)c3ccc(CN4CCC(c5cccc(F)c5F)CC4)cc3C2=O)C(=O)N1 (stereo not drawn) [GT-06359, 5-((4-(2,3-difluorophenyl)piperidin-1-yl)methyl)-2-(2,6-dioxopiperidin-3-yl)isoindoline-1,3-dione] | A (0% ≤ substrate protein remaining % ≤ 80%) | A (0% ≤ substrate protein remaining % ≤ 80%) | B (80%< substrate protein remaining %≤ 100%) | A (0% ≤ substrate protein remaining % ≤ 80%) | A (0% ≤ substrate protein remaining % ≤ 80%) | B (80%< substrate protein remaining %≤ 100%)
7 | O=C1CCC(N2C(=O)c3ccc(CN4CCC(c5cccc(F)c5Cl)CC4)cc3C2=O)C(=O)N1 (stereo not drawn) [GT-06360, 5-((4-(2-chloro-3-fluorophenyl)piperidin-1-yl)methyl)-2-(2,6-dioxopiperidin-3-yl)isoindoline-1,3-dione] | A (0% ≤ substrate protein remaining % ≤ 80%) | A (0% ≤ substrate protein remaining % ≤ 80%) | B (80%< substrate protein remaining %≤ 100%) | A (0% ≤ substrate protein remaining % ≤ 80%) | A (0% ≤ substrate protein remaining % ≤ 80%) | B (80%< substrate protein remaining %≤ 100%)
8 | O=C1CCC(N2C(=O)c3ccc(CN4CCN(c5ccc(F)cc5F)CC4)cc3C2=O)C(=O)N1 (stereo not drawn) [GT-06361, 5-((4-(2,4-difluorophenyl)piperazin-1-yl)methyl)-2-(2,6-dioxopiperidin-3-yl)isoindoline-1,3-dione] | A (0% ≤ substrate protein remaining % ≤ 80%) | B (80%< substrate protein remaining %≤ 100%) | B (80%< substrate protein remaining %≤ 100%) | B (80%< substrate protein remaining %≤ 100%) | B (80%< substrate protein remaining %≤ 100%) | B (80%< substrate protein remaining %≤ 100%)
9 | O=C1CCC(N2C(=O)c3ccc(CN4CCN(c5cc(F)ccc5F)CC4)cc3C2=O)C(=O)N1 (stereo not drawn) [GT-06362, 5-((4-(2,5-difluorophenyl)piperazin-1-yl)methyl)-2-(2,6-dioxopiperidin-3-yl)isoindoline-1,3-dione] | A (0% ≤ substrate protein remaining % ≤ 80%) | B (80%< substrate protein remaining %≤ 100%) | B (80%< substrate protein remaining %≤ 100%) | B (80%< substrate protein remaining %≤ 100%) | B (80%< substrate protein remaining %≤ 100%) | B (80%< substrate protein remaining %≤ 100%)
10 | O=C1CCC(N2C(=O)c3ccc(CN4CCN(c5c(F)cccc5F)CC4)cc3C2=O)C(=O)N1 (stereo not drawn) [GT-06363, 5-((4-(2,6-difluorophenyl)piperazin-1-yl)methyl)-2-(2,6-dioxopiperidin-3-yl)isoindoline-1,3-dione] | A (0% ≤ substrate protein remaining % ≤ 80%) | B (80%< substrate protein remaining %≤ 100%) | B (80%< substrate protein remaining %≤ 100%) | A (0% ≤ substrate protein remaining % ≤ 80%) | B (80%< substrate protein remaining %≤ 100%) | B (80%< substrate protein remaining %≤ 100%)
11 | O=C1CCC(N2C(=O)c3ccc(CN4CCN(c5ccc(F)c(F)c5)CC4)cc3C2=O)C(=O)N1 (stereo not drawn) [GT-06364, 5-((4-(3,4-difluorophenyl)piperazin-1-yl)methyl)-2-(2,6-dioxopiperidin-3-yl)isoindoline-1,3-dione] | A (0% ≤ substrate protein remaining % ≤ 80%) | B (80%< substrate protein remaining %≤ 100%) | B (80%< substrate protein remaining %≤ 100%) | B (80%< substrate protein remaining %≤ 100%) | B (80%< substrate protein remaining %≤ 100%) | B (80%< substrate protein remaining %≤ 100%)
12 | O=C1CCC(N2C(=O)c3ccc(CN4CCN(c5cc(F)cc(F)c5)CC4)cc3C2=O)C(=O)N1 (stereo not drawn) [GT-06365, 5-((4-(3,5-difluorophenyl)piperazin-1-yl)methyl)-2-(2,6-dioxopiperidin-3-yl)isoindoline-1,3-dione] | A (0% ≤ substrate protein remaining % ≤ 80%) | B (80%< substrate protein remaining %≤ 100%) | B (80%< substrate protein remaining %≤ 100%) | B (80%< substrate protein remaining %≤ 100%) | B (80%< substrate protein remaining %≤ 100%) | B (80%< substrate protein remaining %≤ 100%)
13 | Cc1ccc(N2CCN(Cc3ccc4c(c3)C(=O)N(C3CCC(=O)NC3=O)C4=O)CC2)c(C)c1 (stereo not drawn) [GT-06366, 5-((4-(2,4-dimethylphenyl)piperazin-1-yl)methyl)-2-(2,6-dioxopiperidin-3-yl)isoindoline-1,3-dione] | A (0% ≤ substrate protein remaining % ≤ 80%) | B (80%< substrate protein remaining %≤ 100%) | A (0% ≤ substrate protein remaining % ≤ 80%) | B (80%< substrate protein remaining %≤ 100%) | A (0% ≤ substrate protein remaining % ≤ 80%) | B (80%< substrate protein remaining %≤ 100%)
